The target in assay [1] is T1, Type-1 angiotensin II receptor (Bos taurus, UniProt P25104).
T1 sequence (P25104 whole entry): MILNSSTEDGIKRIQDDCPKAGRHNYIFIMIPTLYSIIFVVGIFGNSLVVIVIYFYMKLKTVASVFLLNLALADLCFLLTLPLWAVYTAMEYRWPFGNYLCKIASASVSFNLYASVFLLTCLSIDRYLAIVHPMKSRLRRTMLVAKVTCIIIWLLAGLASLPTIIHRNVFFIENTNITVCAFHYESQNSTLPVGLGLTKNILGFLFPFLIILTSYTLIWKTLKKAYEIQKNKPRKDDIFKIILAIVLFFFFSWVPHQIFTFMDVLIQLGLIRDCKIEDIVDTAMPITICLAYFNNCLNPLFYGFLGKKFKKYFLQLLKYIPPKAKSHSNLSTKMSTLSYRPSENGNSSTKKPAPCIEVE
Put plainly: In vitro Angiotensin II receptor antagonism in bovine adrenal cortex tissue. The format is functional, tissue-based.

Assay [2] deals with Rattus norvegicus. Put plainly: In vivo change in mean arterial blood pressure in conscious renin-dependent […] hypertensive rats at 1 mg/kg, p.o. after 2 hr. The format is functional. The settings on record: route oral.
In assay [3] the test system is Rattus norvegicus. Put plainly: In vivo change in mean arterial blood pressure in conscious renin-dependent […] hypertensive rats at 1 mg/kg, p.o. after 30 min. The format is functional. The settings on record: route oral.
For assay [4], the system named is Rattus norvegicus. Briefly: Percent inhibition of AII vasopressor response in SHR at 5 mg/kg of oral dose after 5 hr in hypertensive rats. The format is functional.
For the next assay, the target named is T2, Angiotensin II receptor (Rattus norvegicus, UniProt P29089+P25095+P35351).
T2 sequence (P29089 whole entry): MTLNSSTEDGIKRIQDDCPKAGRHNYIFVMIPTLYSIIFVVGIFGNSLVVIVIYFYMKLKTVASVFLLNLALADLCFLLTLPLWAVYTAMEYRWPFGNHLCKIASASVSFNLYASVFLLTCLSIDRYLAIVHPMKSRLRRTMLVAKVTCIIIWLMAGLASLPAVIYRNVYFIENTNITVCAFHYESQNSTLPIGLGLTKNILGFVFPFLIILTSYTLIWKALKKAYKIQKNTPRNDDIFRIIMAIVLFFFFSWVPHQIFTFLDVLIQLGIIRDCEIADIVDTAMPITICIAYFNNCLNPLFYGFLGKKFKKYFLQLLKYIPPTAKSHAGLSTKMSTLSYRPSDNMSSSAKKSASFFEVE
T2 sequence (P25095 whole entry): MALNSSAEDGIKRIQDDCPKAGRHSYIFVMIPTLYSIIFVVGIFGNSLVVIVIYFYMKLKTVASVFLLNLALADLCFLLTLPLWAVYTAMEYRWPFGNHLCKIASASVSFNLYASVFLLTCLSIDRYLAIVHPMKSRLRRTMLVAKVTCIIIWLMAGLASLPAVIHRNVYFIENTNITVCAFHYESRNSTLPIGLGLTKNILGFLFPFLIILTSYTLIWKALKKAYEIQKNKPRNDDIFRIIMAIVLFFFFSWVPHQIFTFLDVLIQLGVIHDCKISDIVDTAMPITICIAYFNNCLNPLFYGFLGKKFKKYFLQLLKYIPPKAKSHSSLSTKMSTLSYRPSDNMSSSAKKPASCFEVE
T2 sequence (P35351 whole entry): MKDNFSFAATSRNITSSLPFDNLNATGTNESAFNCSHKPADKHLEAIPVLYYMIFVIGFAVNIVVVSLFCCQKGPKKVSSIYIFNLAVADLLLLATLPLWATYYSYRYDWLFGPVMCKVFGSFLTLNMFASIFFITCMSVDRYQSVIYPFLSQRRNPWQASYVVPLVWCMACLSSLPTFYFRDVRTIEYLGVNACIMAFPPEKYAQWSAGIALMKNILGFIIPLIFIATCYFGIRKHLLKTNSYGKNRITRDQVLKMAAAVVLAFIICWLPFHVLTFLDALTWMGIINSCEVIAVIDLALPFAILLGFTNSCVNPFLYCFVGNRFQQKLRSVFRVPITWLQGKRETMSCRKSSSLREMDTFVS
Put plainly: In vitro Angiotensin II receptor antagonist activity in rat adrenal cortex tissue. The format is functional, tissue-based.

Molecules are shown by their SMILES.

This is an account of results in ChEMBL document CHEMBL1127932, “6-isoxazolinyl and isoxazolidinyl substituted quinazolinones as angiotensin II receptor antagonists” (Bioorg Med Chem Lett, 1994).

What is called IC50 is the concentration that inhibits the measured activity by half. In general, inhibition in vivo refers to how much of the control response was suppressed. Read a high inhibition in vivo as strong suppression.

In the case of `CCCCc1nc2ccc(C3CC(c4cc(C)cs4)=NO3)cc2c(=O)n1Cc1ccc(-c2ccccc2-c2nnn[nH]2)cc1` (stereo not given), it took 410 nM to reach half-maximal inhibition in assay [1] (IC50). In assay [1], `CCCCc1nc2ccc(C3CC(C(=O)O)=NO3)cc2c(=O)n1Cc1ccc(-c2ccccc2-c2nn[nH]n2)cc1` (stereo not given) gave a half-inhibitory concentration (IC50) of 500 nM. This IC50 and that of the compound before are within 1.5-fold of each other. Take `CCCCc1nc2ccc(C3(C)CC(C(=O)OCC)=NO3)cc2c(=O)n1Cc1ccc(-c2ccccc2-c2nn[nH]n2)cc1` (stereo not given): half-maximal inhibition in assay [1] (IC50) was put at 140 nM. On to `CCCCc1nc2ccc([C@]3(C)C[C@H]4CCCN4O3)cc2c(=O)n1Cc1ccc(-c2ccccc2-c2nn[nH]n2)cc1`, for which the Activity in the assay with Rattus norvegicus [2] is given as -5.5 mmHg; with Rattus norvegicus [3] it was -3 mmHg. Also, in assay [1], the IC50 worked out at 27 nM.

Consider `CCCCc1nc2ccc([C@@H]3C[C@H]4CCCN4O3)cc2c(=O)n1Cc1ccc(-c2ccccc2-c2nnn[nH]2)cc1`, for which the midpoint of inhibition in assay [1], the IC50, lay at 32 nM. This counts as double-digit nanomolar. For `CCCCc1nc(Cl)c(CO)n1Cc1ccc(-c2ccccc2-c2nnn[nH]2)cc1` [LOSARTAN], in the assay with Rattus norvegicus [4], 5 mg/kg produced 50% inhibition in vivo. Further, in assay [1], the IC50 turned out to be 330 nM. As to `CCCCc1nc2ccc([C@@]3(C)C[C@H]4CCC(C)(C)N4O3)cc2c(=O)n1Cc1ccc(-c2ccccc2-c2nnn[nH]2)cc1`, the IC50 in assay [1] worked out at 70 nM. This lies in the double-digit nanomolar range. As for `CCCCc1nc2ccc([C@@]3(CC)C[C@H]4CCCN4O3)cc2c(=O)n1Cc1ccc(-c2ccccc2-c2nnn[nH]2)cc1`, inhibition in assay [1] was half-maximal at 58 nM (IC50). This IC50 and that of the compound before are within 1.5-fold of each other.

`CCCCc1nc2ccc([C@H]3ON4CCCC4C3C(=O)OCC)cc2c(=O)n1Cc1ccc(-c2ccccc2-c2nn[nH]n2)cc1` (stereo not given in full): in assay [1], the IC50 turned out to be 69 nM.

`CCCCc1nc2ccc(C3(C(=O)N4CCCCC4)C[C@H]4CCCN4O3)cc2c(=O)n1Cc1ccc(-c2ccccc2-c2nn[nH]n2)cc1` (stereo not given in full) gave an IC50 in assay [1] of 61 nM. `CCCCc1nc2ccc([C@]3(c4ccccc4)C[C@H]4CCCN4O3)cc2c(=O)n1Cc1ccc(-c2ccccc2-c2nnn[nH]2)cc1`: half-maximal inhibition in assay [1] (IC50) required 56 nM. Regarding `CCCCc1nc2ccc(-c3ccco3)cc2c(=O)n1Cc1ccc(-c2ccccc2-c2nn[nH]n2)cc1`, the IC50 against Angiotensin II receptor was 47 nM. On the same count and under the same terms, the result for `CCCCc1nc2ccc(C3C=CCO3)cc2c(=O)n1Cc1ccc(-c2ccccc2-c2nn[nH]n2)cc1` (stereo not given) reads 5 nM.

The compound `CCCCc1nc2ccc([C@@]3(C)C[C@H]4CCCN4O3)cc2c(=O)n1Cc1ccc(-c2ccccc2-c2nn[nH]n2)cc1` yielded a half-inhibitory concentration (IC50) in assay [1] of 55 nM. `CCCCc1nc2ccc([C@]3(C(=O)OC)C[C@H]4CCCN4O3)cc2c(=O)n1Cc1ccc(-c2ccccc2-c2nnn[nH]2)cc1` had an IC50 in assay [1] of 79 nM.

In assay [1], `CCCCc1nc2ccc([C@]3(C(=O)N(C)C)C[C@H]4CCCN4O3)cc2c(=O)n1Cc1ccc(-c2ccccc2-c2nnn[nH]2)cc1` registered an IC50 of 57 nM. Take `CCCCc1nc2ccc(C(C)(C)OC)cc2c(=O)n1Cc1ccc(-c2ccccc2-c2nn[nH]n2)cc1` [CL-329167]: the IC50 in assay [1] worked out at 31 nM. Regarding `CCCCc1nc2ccc([C@]3(C)C[C@H]4CCC(C)(C)N4O3)cc2c(=O)n1Cc1ccc(-c2ccccc2-c2nnn[nH]2)cc1`, in assay [1], the concentration for half-maximal inhibition (IC50) stood at 65 nM. In assay [1], `CCCCc1nc2ccc([C@@H]3C[C@@]4(C)CCCCN4O3)cc2c(=O)n1Cc1ccc(-c2ccccc2-c2nn[nH]n2)cc1` yielded a concentration for half-maximal inhibition (IC50) of 65 nM.

`CCCCc1nc2ccc([C@]3(CC)C[C@H]4CCCN4O3)cc2c(=O)n1Cc1ccc(-c2ccccc2-c2nnn[nH]2)cc1` had a concentration for half-maximal inhibition (IC50) in assay [1] of 83 nM. This IC50 and that of the compound before are within 1.5-fold of each other.

`CCCCc1nc2ccc([C@]3(CO)C[C@H]4CCCN4O3)cc2c(=O)n1Cc1ccc(-c2ccccc2-c2nnn[nH]2)cc1` returned a half-maximal inhibitory concentration (IC50) in assay [1] of 35 nM. As for `CCCCc1nc2ccc([C@@H]3C[C@H]4CCC(C)(C)N4O3)cc2c(=O)n1Cc1ccc(-c2ccccc2-c2nnn[nH]2)cc1`, inhibition in assay [1] was half-maximal at 39 nM (IC50).

`CCCCc1nc2ccc(C3CC(c4cc(C)co4)=NO3)cc2c(=O)n1Cc1ccc(-c2ccccc2-c2nnn[nH]2)cc1` (stereo not given) yielded a half-inhibitory concentration (IC50) in assay [1] of 180 nM. This IC50 lies about 4.6-fold higher than the previous one. Take `CCCCc1nc2ccc(-c3cccs3)cc2c(=O)n1Cc1ccc(-c2ccccc2-c2nn[nH]n2)cc1`: at Angiotensin II receptor, the half-maximal inhibitory concentration (IC50) worked out at 44 nM. That is a double-digit nanomolar value.

In assay [1], `CCCCc1nc2ccc([C@]3(C(=O)O)C[C@H]4CCCN4O3)cc2c(=O)n1Cc1ccc(-c2ccccc2-c2nnn[nH]2)cc1` yielded an IC50 of 46 nM. For the compound `CCCCc1nc2ccc(C3CCCO3)cc2c(=O)n1Cc1ccc(-c2ccccc2-c2nn[nH]n2)cc1` (stereo not given), the IC50 on Angiotensin II receptor was found to be 11 nM. Regarding `CCCCc1nc2ccc(C3(C(=O)N4CCCC4)C[C@H]4CCCN4O3)cc2c(=O)n1Cc1ccc(-c2ccccc2-c2nnn[nH]2)cc1` (stereo not given in full), it took 69 nM to reach half-maximal inhibition in assay [1] (IC50). This counts as double-digit nanomolar.
